24 molecules from US20230257351A1, “SUBSTITUTED N-[…] HAVING P2X4 RECEPTOR ANTAGONISTIC ACTIVITY” (Bayer Aktiengesellschaft, priority 2020, published 2023) can be followed below.

The target of the assay is T1, human P2X4 (Homo sapiens, UniProt Q99571).
T1 construct: expressed in transfected cells
T1 sequence (Q99571 1-388): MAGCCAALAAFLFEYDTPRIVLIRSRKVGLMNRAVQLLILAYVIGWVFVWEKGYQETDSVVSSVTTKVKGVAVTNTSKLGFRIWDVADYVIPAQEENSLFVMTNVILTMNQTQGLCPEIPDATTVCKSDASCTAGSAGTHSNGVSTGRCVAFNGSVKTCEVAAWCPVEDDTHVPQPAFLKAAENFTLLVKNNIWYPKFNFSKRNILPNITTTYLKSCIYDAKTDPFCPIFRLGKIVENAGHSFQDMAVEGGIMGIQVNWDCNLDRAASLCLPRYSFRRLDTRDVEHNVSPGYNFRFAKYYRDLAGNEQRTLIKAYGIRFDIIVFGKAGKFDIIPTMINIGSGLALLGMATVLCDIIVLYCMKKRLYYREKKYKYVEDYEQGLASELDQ
Description: Human P2X4 HEK Cell FLIPR Assay. The assay is classed as cell-based. As to conditions: HEK293 stably expressing human P2X4, agonist Bz-ATP 3 μM (EC80); for IC50: read-out: Human P2X4 HEK Cells (FLIPR Assay) avg IC50. Here is the method:
Compounds were tested on a HEK293 cell line stably expressing human P2X4. Cells were cultured on poly-D-lysine-coated 384-well plates at a density of 15,000 cells/well and incubated overnight at 37° C., 5% CO2. P2X4 function was assessed by measuring intracellular calcium fluxes caused by Benzoylbenzoyl-ATP (Bz-ATP) using the calcium-chelating dye Fluo8-AM (Molecular Devices) with the Fluorescent Imaging Plate Reader Tetra (FLIPR^Tetra; Molecular Devices CA). On the day of the assay, the medium was removed and the cells were incubated for 30 min at 37° C. and 5% CO2 in 30 μl of dye buffer (Hank's balanced salt solution, 10 mM HEPES, 1.8 mM CaCl2, 1 mM MgCl2, 2 mM probenecid, 5 mM D-glucose monohydrate, 5 μM Fluo8-AM, pH=7.4). Compounds diluted in probenecid buffer (Hank's balanced salt solution, 10 mM HEPES, 1.8 mM CaCl2, 1 mM MgCl2, 2 mM probenecid, 5 mM D-glucose monohydrate, pH=7.4) at ten concentrations ranging from 25 μM to 1 nM (final concentration) were dispensed and incubated for 30 min at room temperature. […] The final assay volume was 50 μl and final DMSO concentration was 0.5%.
The fluorescence intensity reflecting intracellular calcium changes was recorded before and after Bz-ATP addition, at an excitation and emission wavelengths of 470-495 nm and 515-575 nm respectively.
The compounds were tested in triplicates and fluorescence intensity raw data normalized to the agonist control and fitted to the four-parameter logistic equation:
Y=Bottom+(Top−Bottom)/(1+10^((Log IC50−X)*HillSlope))
Assay plate acceptance was based on the signal window (S/B)[…] and the reference compound pIC50 within ±3σ the mean of historic pIC50 of the compound. Failure to meet two of the three criteria determined exclusion of the plate's results.

In the case of `CC(=O)N(c1cc(NC(=O)Cc2cccc(F)c2Cl)ccn1)c1ccc(C(F)(F)F)cc1F` [Example 119, N-{4-[2-(2-chloro-3-fluorophenyl)acetamido]pyridin-2-yl}-N-[2-fluoro-4-(trifluoromethyl)phenyl]acetamide], the “Human P2X4 HEK Cells (FLIPR Assay) avg Efficacy” value (“Human P2X4 HEK Cells” below) is reported as 101% and the IC50 was determined as 941 nM.
The like results for `CC(=O)N(c1cc(NC(=O)Cc2c(Cl)cccc2Cl)ccn1)c1ccc(C(F)(F)F)cc1F` [Example 120, N-{4-[2-(2,6-dichlorophenyl)acetamido]pyridin-2-yl}-N-[2-fluoro-4-(trifluoromethyl)phenyl]acetamide] were, in that order, 102% and 871 nM.
As for `CC(=O)N(c1cc(NC(=O)Cc2cccc(C(F)(F)F)c2Cl)ccn1)c1cccc(F)c1F` [Example 121, N-(4-{2-[2-chloro-3-(trifluoromethyl)phenyl]acetamido}pyridin-2-yl)-N-(2,3-difluorophenyl)acetamide], the “Human P2X4 HEK Cells” value was 97% and the IC50 stood at 843 nM.
Regarding `CC(=O)N(c1cc(NC(=O)Cc2ccccc2Cl)ccn1)c1cccc(F)c1F` [Example 122, N-{4-[2-(2-chlorophenyl)acetamido]pyridin-2-yl}-N-(2,3-difluorophenyl)acetamide], the “Human P2X4 HEK Cells” value is 95% and the IC50 is 357 nM.
For the molecule `CC(=O)N(c1cc(NC(=O)Cc2cccc(F)c2Cl)ccn1)c1cccc(F)c1F` [Example 124, N-{4-[2-(2-chloro-3-fluorophenyl)acetamido]pyridin-2-yl}-N-(2,3-difluorophenyl)acetamide], the “Human P2X4 HEK Cells” value was 94% and the IC50 turned out to be 289 nM.
`CC(=O)N(c1cc(NC(=O)Cc2c(Cl)cccc2Cl)ccn1)c1cccc(F)c1F` [Example 125, N-{4-[2-(2,6-dichlorophenyl)acetamido]pyridin-2-yl}-N-(2,3-difluorophenyl)acetamide]: the “Human P2X4 HEK Cells” value turned out to be 95% and the IC50 was 577 nM.
The like results for `CC(=O)N(c1cccc(Cl)c1)c1cc(NC(=O)Cc2c(Cl)cccc2Cl)ccn1` [Example 134, N-(3-chlorophenyl)-N-{4-[2-(2,6-dichlorophenyl)acetamido]pyridin-2-yl}acetamide] were, in that order, 99% and 504 nM.
`CC(=O)N(c1cc(F)cc(Cl)c1)c1cc(NC(=O)Cc2ccccc2Cl)ccn1` [Example 136, N-(3-chloro-5-fluorophenyl)-N-{4-[2-(2-chlorophenyl)acetamido]pyridin-2-yl}acetamide]: the “Human P2X4 HEK Cells” value was 94% and the IC50 amounted to 310 nM.
`CC(=O)N(c1cc(F)cc(Cl)c1)c1cc(NC(=O)Cc2ccc(F)cc2Cl)ccn1` [Example 137, N-(3-chloro-5-fluorophenyl)-N-{4-[2-(2-chloro-4-fluorophenyl)acetamido]pyridin-2-yl)acetamide]: the “Human P2X4 HEK Cells” value is given as 104% and the half-inhibitory concentration (IC50) stood at 290 nM.
The matching figures for `CC(=O)N(c1cc(F)cc(Cl)c1)c1cc(NC(=O)Cc2cccc(F)c2Cl)ccn1` [Example 138, N-(3-chloro-5-fluorophenyl)-N-{4-[2-(2-chloro-3-fluorophenyl)acetamido]pyridin-2-yl}acetamide]: 96% and 316 nM.
The matching figures for `CC(=O)N(c1cc(F)cc(Cl)c1)c1cc(NC(=O)Cc2c(Cl)cccc2Cl)ccn1` [Example 139, N-(3-chloro-5-fluorophenyl)-N-{4-[2-(2,6-dichlorophenyl)acetamido]pyridin-2-yl}acetamide]: 100% and 356 nM.
Consider `CC(=O)N(c1cc(F)cc(Cl)c1)c1cc(NC(=O)Cc2c(F)cccc2Cl)ccn1` [Example 140, N-(3-chloro-5-fluorophenyl)-N-{4-[2-(2-chloro-6-fluorophenyl)acetamido]pyridin-2-yl)acetamide], for which the “Human P2X4 HEK Cells” value was 105% and the IC50 was 271 nM.
The like results for `CC(=O)N(c1cc(F)cc(C#N)c1)c1cc(NC(=O)Cc2ccccc2Cl)ccn1` [Example 145, N-{4-[2-(2-Chlorphenyl)acetamido]pyridin-2-yl}-N-(3-cyan-5-fluorphenyl)acetamide] were, in that order, 98% and 234 nM.
Take `CC(=O)N(c1cc(F)cc(C#N)c1)c1cc(NC(=O)Cc2c(Cl)cccc2Cl)ccn1` [Example 146, N-(3-Cyan-5-fluorphenyl)-N-{4-[2-(2,6-dichlorphenyl)acetamido]pyridin-2-yl}acetamide]: the “Human P2X4 HEK Cells” value worked out at 103% and the IC50 was determined as 337 nM.
The like results for `CC(=O)N(c1cc(F)cc(C#N)c1)c1cc(NC(=O)Cc2cccc(F)c2Cl)ccn1` [Example 147, N-{4-[2-(2-Chlor-3-fluorphenyl)acetamido]pyridin-2-yl}-N-(3-cyan-5-fluorphenyl)acetamide] were, in that order, 97% and 384 nM.
For the molecule `CC(=O)N(c1cc(F)cc(C#N)c1)c1cc(NC(=O)Cc2c(F)cccc2Cl)ccn1` [Example 148, N-{4-[2-(2-Chlor-6-fluorphenyl)acetamido]pyridin-2-yl}-N-(3-cyan-5-fluorphenyl)acetamide], the “Human P2X4 HEK Cells” value is 96% and the 50% inhibitory concentration (IC50) was determined as 436 nM.
For `CC(=O)N(c1cc(F)cc(C#N)c1)c1cc(NC(=O)Cc2ccc(F)cc2Cl)ccn1` [Example 149, N-{4-[2-(2-Chlor-4-fluorphenyl)acetamido]pyridin-2-yl}-N-(3-cyan-5-fluorphenyl)acetamide], the “Human P2X4 HEK Cells” value is on record as 100% and the IC50 is 450 nM.
For `CC(=O)N(c1cc(NC(=O)Cc2ccccc2Cl)ccn1)c1ccc(F)cc1Cl` [Example 150, N-(2-Chlor-4-fluorphenyl)-N-{4-[2-(2-chlorphenyl)acetamido]pyridin-2-yl}acetamide], the “Human P2X4 HEK Cells” value came to 102% and the half-maximal inhibitory concentration (IC50) was 297 nM.
For `CC(=O)N(c1cc(NC(=O)Cc2ccc(F)cc2Cl)ccn1)c1ccc(F)cc1Cl` [Example 151, N-(2-Chlor-4-fluorphenyl)-N-{4-[2-(2-chlor-4-fluorphenyl)acetamido]pyridin-2-yl}acetamide], the “Human P2X4 HEK Cells” value is 104% and the IC50 turned out to be 355 nM.
The matching figures for `CC(=O)N(c1cc(NC(=O)Cc2c(Cl)cccc2Cl)ccn1)c1ccc(F)cc1Cl` [Example 152, N-(2-Chlor-4-fluorphenyl)-N-{4-[2-(2,6-dichlorphenyl)acetamido]pyridin-2-yl}acetamide]: 104% and 441 nM.
As to `CC(=O)N(c1cc(NC(=O)Cc2c(F)cccc2Cl)ccn1)c1ccc(F)cc1Cl` [Example 153, N-(2-Chlor-4-fluorphenyl)-N-{4-[2-(2-chlor-6-fluorphenyl)acetamido]pyridin-2-yl}acetamide], the “Human P2X4 HEK Cells” value came out at 102% and the IC50 worked out at 476 nM.
With `CC(=O)N(c1cc(NC(=O)Cc2cccc(F)c2Cl)ccn1)c1ccc(F)cc1Cl` [Example 154, N-(2-Chlor-4-fluorphenyl)-N-{4-[2-(2-chlor-3-fluorphenyl)acetamido]pyridin-2-yl}acetamide], the “Human P2X4 HEK Cells” value amounted to 101% and the IC50 worked out at 511 nM.
`CC(=O)N(c1ccc(S(C)(=O)=O)c(Cl)c1)c1cc(NC(=O)Cc2c(Cl)cccc2Cl)ccn1` [Example 155, N-[3-Chlor-4-(methylsulfonyl)phenyl]-N-{4-[2-(2,6-dichlorphenyl)acetamido]pyridin-2-yl)acetamide]: the “Human P2X4 HEK Cells” value is listed as 100% and the IC50 was determined as 339 nM.
Consider `CC(=O)N(c1ccc(S(C)(=O)=O)c(Cl)c1)c1cc(NC(=O)Cc2cccc(F)c2Cl)ccn1` [Example 156, N-{4-[2-(2-Chlor-3-fluorphenyl)acetamido]pyridin-2-yl}-N-[3-chlor-4-(methylsulfonyl)phenyl]acetamide], for which the “Human P2X4 HEK Cells” value is recorded as 96% and the IC50 was 512 nM.
